Measured values from patent US11713335B2, “Aminocoumarin compounds and methods of their use” (President and Fellows of Harvard College, priority 2018, dated 2023).
In brackets after ≈: the same amount, converted by molar mass. Read-outs that look alike come from different tables or passages of the source.

Key:
WT E. coli = assay: Minimal inhibitory concentration in wild-type E. coli; assay type: cell-based, Escherichia coli; details: read-out: MIC (μM) in WT E. coli
Summary of the method: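 Broth microdilution: saturated LB overnight culture diluted 1:100 twice, compound serially two-fold diluted across the plate from DMSO stock. Static incubation 16 hours at 37° C, OD600 read; MIC taken as lowest concentration inhibiting growth.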

S. aureus RN4220 = assay: Minimal inhibitory concentration, S. aureus RN4220; assay type: cell-based; details: 16 hour minimal inhibitory concentration at 37° C., read-out: MIC (μM) S. aureus RN4220
Summary of the method: (§1)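 MIC, in µM, taken as the lowest compound concentration preventing growth by OD600 after 16 h static incubation at 37 °C. Compound was twofold serially diluted in bacteria grown overnight in LB, or TSA for S. aureus, and diluted 1:100 twice.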

S. aureus MW2 = assay: Minimal inhibitory concentration, S. aureus MW2; assay type: cell-based; details: read-out: MIC (μM) S. aureus MW2 (MRSA)
Summary of the method: as §1

E. cloacae 13047 = assay: Minimal inhibitory concentration, E. cloacae 13047; assay type: cell-based; details: 16 hour minimal inhibitory concentration at 37° C., read-out: MIC (μM) E. cloacae 13047
Summary of the method: as §1

A. baumannii 19606 = assay: Minimal inhibitory concentration, A. baumannii 19606; assay type: cell-based; details: 16 hour minimal inhibitory concentration at 37° C., read-out: MIC (μM) A. baumannii 19606
Summary of the method: as §1

K. pneumoniae 700721 = assay: Minimal inhibitory concentration, K. pneumoniae 700721; assay type: cell-based; details: 16 hour minimal inhibitory concentration at 37° C., read-out: MIC (μM) K. pneumoniae 700721
Summary of the method: as §1

E. coli MC4100 = assay: Minimal inhibitory concentration, E. coli MC4100; assay type: cell-based; details: 16 hour minimal inhibitory concentration at 37° C., read-out: MIC (μM) E. coli MC4100 ara+
Summary of the method: as §1

E. coli 25922 = assay: Minimal inhibitory concentration, E. coli 25922; assay type: cell-based; details: 16 hour minimal inhibitory concentration at 37° C., read-out: MIC (μM) E. coli 25922
Summary of the method: as §1

[1] = wild-type E. coli, 37° C., 16 hours
[2] = 16 hour minimal inhibitory concentration at 37° C.
[3] = Staphylococcus aureus, RN4220, 16 h
[4] = Escherichia coli, wild-type E. coli, 37° C., 16 hours
[5] = Staphylococcus aureus, MRSA, 16 h, 16 hour minimal inhibitory concentration at 37° C.
[6] = Acinetobacter baumannii, 19606, 16 h

Row | Structure (SMILES) | MIC (WT E. coli; [1]) | MIC (S. aureus RN4220) | MIC (S. aureus MW2; [2]) | MIC (E. cloacae 13047) | MIC (A. baumannii 19606) | MIC (K. pneumoniae 700721) | MIC (E. coli MC4100) | MIC (E. coli 25922) | MIC (S. aureus RN4220; [3]) | MIC (E. cloacae 13047; Enterobacter cloacae, 13047) | MIC (K. pneumoniae 700721; Klebsiella pneumoniae, 700721) | MIC (WT E. coli; [4]) | MIC (S. aureus MW2; [5]) | MIC (A. baumannii 19606; [6]) | MIC (E. coli MC4100; Escherichia coli, MC4100, 16 h) | MIC (E. coli 25922; Escherichia coli, 25922, 16 h) | also measured
1 | CO[C@@H]1[C@@H](OC(N)=O)[C@@H](O)[C@H](Oc2ccc3c(O)c(NC(=O)c4ccc(O)c(-c5ccc6ccccc6c5)c4)c(=O)oc3c2C)OC1(C)C [Compound 92] | 150 µM (≈ 101 µg/mL) | 0.09 µM (≈ 0.0604 µg/mL) | 0.09 µM (≈ 0.0604 µg/mL) | >100 µM | 1.16 µM (≈ 0.778 µg/mL) | >100 µM | 150 µM (≈ 101 µg/mL) | >200 µM |  |  |  |  |  |  |  |  | 
2 | CO[C@@H]1[C@@H](OC(N)=O)[C@@H](O)[C@H](Oc2ccc3c(O)c(NC(=O)c4ccc(O)c(C/C=C/C(C)=O)c4)c(=O)oc3c2C)OC1(C)C [Compound 81] |  |  |  |  |  |  |  |  | 40 µM (≈ 25.1 µg/mL) | > 100 µM | > 100 µM |  |  |  |  |  | MIC (WT E. coli; Escherichia coli, 16 h): > 300 µM; MIC (S. aureus MW2; Staphylococcus aureus, MRSA, 16 h): 40 µM (≈ 25.1 µg/mL); MIC (A. baumannii 19606; Acinetobacter baumannii, 19606): > 50 µM; MIC (E. coli MC4100; Escherichia coli, MC4100): > 200 µM; MIC (E. coli 25922; Escherichia coli, 25922): > 200 µM
3 | CO[C@@H]1[C@@H](OC(N)=O)[C@@H](O)[C@H](Oc2ccc3c(O)c(NC(=O)c4cc(N)cc(-c5ccccc5)c4)c(=O)oc3c2C)OC1(C)C [Compound 89] | 59 µM (≈ 36.6 µg/mL) | 20 µM (≈ 12.4 µg/mL) | 10 µM (≈ 6.2 µg/mL) | >100 µM | >50 µM | >100 µM | 59 µM (≈ 36.6 µg/mL) | 81 µM (≈ 50.2 µg/mL) |  |  |  |  |  |  |  |  | 
4 | CO[C@@H]1[C@@H](OC(N)=O)[C@@H](O)[C@H](Oc2ccc3c(O)c(NC(=O)c4ccc(O)c(-c5cccc6ccccc56)c4)c(=O)oc3c2C)OC1(C)C [Compound 93] | 75 µM (≈ 50.3 µg/mL) | 37 µM (≈ 24.8 µg/mL) | 19 µM (≈ 12.7 µg/mL) | >100 µM | >50 µM | >100 µM | 75 µM (≈ 50.3 µg/mL) | >200 µM |  |  |  |  |  |  |  |  | 
5 | CO[C@@H]1[C@@H](OC(N)=O)[C@@H](O)[C@H](Oc2ccc3c(O)c(NC(=O)c4ccc(O)c(C/C=C/C(=O)O)c4)c(=O)oc3c2C)OC1(C)C [Compound 82] | >300 µM | >100 µM | >100 µM | >100 µM | >50 µM | >100 µM | >200 µM | >200 µM |  |  |  |  |  |  |  |  | 
6 | CO[C@@H]1[C@@H](OC(N)=O)[C@@H](O)[C@H](Oc2ccc3c(O)c(NC(=O)c4cc(O)c(O)c(-c5ccc6ccccc6c5)c4)c(=O)oc3c2C)OC1(C)C [Compound 96] | >300 µM | 9 µM (≈ 6.18 µg/mL) | 9 µM (≈ 6.18 µg/mL) | >100 µM | 18 µM (≈ 12.4 µg/mL) | 76 µM (≈ 52.2 µg/mL) | >200 µM | 146 µM (≈ 100 µg/mL) |  |  |  |  |  |  |  |  | 
7 | CO[C@@H]1[C@@H](OC(N)=O)[C@@H](O)[C@H](Oc2ccc3c(O)c(NC(=O)c4cccc(-c5ccccc5)c4O)c(=O)oc3c2C)OC1(C)C [Compound 88] | 89 µM (≈ 55.2 µg/mL) | >100 µM | 81 µM (≈ 50.3 µg/mL) | >100 µM | >50 µM | >100 µM | 89 µM (≈ 55.2 µg/mL) | 161 µM (≈ 99.9 µg/mL) |  |  |  |  |  |  |  |  | 
8 | CO[C@@H]1[C@@H](OC(N)=O)[C@@H](O)[C@H](Oc2ccc3c(O)c(NC(=O)c4cc5ccccc5o4)c(=O)oc3c2C)OC1(C)C [Compound 6] |  |  |  |  |  |  |  |  | 88 µM (≈ 50 µg/mL) | > 100 µM | > 100 µM | > 300 µM | 88 µM (≈ 50 µg/mL) | > 50 µM | > 200 µM | > 200 µM | 
9 | CO[C@@H]1[C@@H](OC(N)=O)[C@@H](O)[C@H](Oc2ccc3c(O)c(NC(=O)c4cccc(-c5cccc(OC(F)(F)F)c5)c4)c(=O)oc3c2C)OC1(C)C [Compound 58] | 89 µM (≈ 61.3 µg/mL) | 0.36 µM (≈ 0.248 µg/mL) | 0.18 µM (≈ 0.124 µg/mL) | >100 µM | 18 µM (≈ 12.4 µg/mL) | >100 µM | 89 µM (≈ 61.3 µg/mL) | >200 µM |  |  |  |  |  |  |  |  | 
10 | CO[C@@H]1[C@@H](OC(N)=O)[C@@H](O)[C@H](Oc2ccc3c(O)c(NC(=O)c4cccc(-c5ccc(C(C)C)cc5)c4)c(=O)oc3c2C)OC1(C)C [Compound 48] |  |  |  |  |  |  |  |  | 0.77 µM (≈ 0.498 µg/mL) | > 100 µM | 77 µM (≈ 49.8 µg/mL) | 89 µM (≈ 57.6 µg/mL) | 0.48 µM (≈ 0.31 µg/mL) | 19 µM (≈ 12.3 µg/mL) | 89 µM (≈ 57.6 µg/mL) | 77 µM (≈ 49.8 µg/mL) | 
11 | COc1ccc(C(=O)Nc2c(O)c3ccc(O[C@@H]4OC(C)(C)[C@H](OC)[C@@H](OC(N)=O)[C@H]4O)c(C)c3oc2=O)cc1 [Compound 7] |  |  |  |  |  |  |  |  | 45 µM (≈ 25.1 µg/mL) | > 100 µM | > 100 µM | > 300 µM | 45 µM (≈ 25.1 µg/mL) | > 50 µM | > 200 µM | > 200 µM | 
12 | CO[C@@H]1[C@@H](OC(N)=O)[C@@H](O)[C@H](Oc2ccc3c(O)c(NC(=O)c4ccc(Oc5ccccc5)cc4)c(=O)oc3c2C)OC1(C)C [Compound 44] | >300 µM | 45 µM (≈ 27.9 µg/mL) | 40 µM (≈ 24.8 µg/mL) | >100 µM | >50 µM | >100 µM | >200 µM | >200 µM |  |  |  |  |  |  |  |  | 
13 | CO[C@@H]1[C@@H](OC(N)=O)[C@@H](O)[C@H](Oc2ccc3c(O)c(NC(=O)c4ccc(N)c(-c5ccccc5)c4)c(=O)oc3c2C)OC1(C)C [Compound 86] | 18 µM (≈ 11.2 µg/mL) | 20 µM (≈ 12.4 µg/mL) | 20 µM (≈ 12.4 µg/mL) | >100 µM | >50 µM | 40 µM (≈ 24.8 µg/mL) | 18 µM (≈ 11.2 µg/mL) | 20 µM (≈ 12.4 µg/mL) |  |  |  |  |  |  |  |  | 
14 | CO[C@@H]1[C@@H](OC(N)=O)[C@@H](O)[C@H](Oc2ccc3c(O)c(NC(=O)c4cccc(-c5ccccc5N)c4)c(=O)oc3c2C)OC1(C)C [Compound 65] | 59 µM (≈ 36.6 µg/mL) | 81 µM (≈ 50.2 µg/mL) | 40 µM (≈ 24.8 µg/mL) | >100 µM | >50 µM | >100 µM | 59 µM (≈ 36.6 µg/mL) | >200 µM |  |  |  |  |  |  |  |  | 
15 | CO[C@@H]1[C@@H](OC(N)=O)[C@@H](O)[C@H](Oc2ccc3c(O)c(NC(=O)c4cccc(-c5ccccc5C(C)C)c4)c(=O)oc3c2C)OC1(C)C [Compound 49] | >300 µM | 10 µM (≈ 6.47 µg/mL) | 5 µM (≈ 3.23 µg/mL) | >100 µM | >50 µM | >100 µM | >200 µM | >200 µM |  |  |  |  |  |  |  |  | 
16 | CO[C@@H]1[C@@H](OC(N)=O)[C@@H](O)[C@H](Oc2ccc3c(O)c(NC(=O)c4cc(-c5ccc6ccccc6c5)cc(O)c4O)c(=O)oc3c2C)OC1(C)C [Compound 98] | >300 µM | 18 µM (≈ 12.4 µg/mL) | 18 µM (≈ 12.4 µg/mL) | >100 µM | 36 µM (≈ 24.7 µg/mL) | >100 µM | >200 µM | >200 µM |  |  |  |  |  |  |  |  | 
17 | CO[C@@H]1[C@@H](OC(N)=O)[C@@H](O)[C@H](Oc2ccc3c(O)c(NC(=O)c4ccc(C5CCCCC5)cc4)c(=O)oc3c2C)OC1(C)C [Compound 41] |  |  |  |  |  |  |  |  | 20 µM (≈ 12.2 µg/mL) | > 100 µM | > 100 µM | > 300 µM | 20 µM (≈ 12.2 µg/mL) | > 50 µM | > 200 µM | > 200 µM | 
18 | CO[C@@H]1[C@@H](OC(N)=O)[C@@H](O)[C@H](Oc2ccc3c(O)c(NC(=O)c4cccc(-c5cccnc5)c4)c(=O)oc3c2C)OC1(C)C [Compound 29] |  |  |  |  |  |  |  |  | 83 µM (≈ 50.3 µg/mL) | > 100 µM | > 100 µM | > 300 µM | 83 µM (≈ 50.3 µg/mL) | > 50 µM | > 200 µM | > 200 µM | 
19 | CO[C@@H]1[C@@H](OC(N)=O)[C@@H](O)[C@H](Oc2ccc3c(O)c(NC(=O)c4cccc(-c5cccc(F)c5)c4)c(=O)oc3c2C)OC1(C)C [Compound 38] |  |  |  |  |  |  |  |  | 5 µM (≈ 3.11 µg/mL) | > 100 µM | > 100 µM | 26 µM (≈ 16.2 µg/mL) | 10 µM (≈ 6.23 µg/mL) | > 50 µM | 26 µM (≈ 16.2 µg/mL) | 40 µM (≈ 24.9 µg/mL) | 
